Square brackets hold non-standard residues; d marks the D form. Ends that are not written are not given here. Tyr(3-NO2) = N[C@@H](Cc1ccc(O)c([N+](=O)[O-])c1)C(=O)O
Tested on: splenocytes of mice immunized with N-4YSyn
Experiment: 3H-thymidine in vitro proliferation assay of splenocytes stimulated with antigen or test peptide
Assay type: cell-based, mice (C57BL/6J)
Settings: splenocytes from N-4YSyn/CFA immunized mice; 30 μg/ml antigen or peptide, 5 days; vs media control; no response in PBS immunized mice
Experimental: B6 (H-2^b) mice were immunized with PBS or 50 μg of N-4YSyn (nitrated C-terminal 40 amino acid α-Syn fragment) in complete Freund's adjuvant (CFA) administered subcutaneously (s.c.). Seven days after primary immunization, mice were boosted with another 50 μg of antigen emulsified in IFA (Sigma-Aldrich). Seven days following their final immunizations, donor mice were sacrificed and single cell suspensions were prepared from the spleen.
Samples of pooled splenocytes were tested for their proliferative capacity by ^3H-thymidine incorporation after stimulation with either immunizing antigen or test peptide. Splenocytes were plated at a density of 2×10^6 cells/ml complete RPMI tissue culture media (RPMI 1640 supplemented with 10% fetal bovine serum (FBS), 2 mM L-glutamine, 10 mM HEPES, 1 mM sodium pyruvate, 1× nonessential aa, 55 μM 2-mercaptoethanol, 100 U/ml penicillin, and 100 μg/ml streptomycin (Mediatech Inc., Herndon, VA)). Splenocytes from PBS or N-4YSyn immunized mice were stimulated with 0 or 30 μg/ml of immunizing antigen N-4YSyn or 30 μg/ml of the non-nitrated or nitrated peptide indicated, and cultured at 37° C. for 5 days. Cells were pulsed with […] ^3H-thymidine/well for the final 18 hours of culture, harvested onto glass fiber plates, and counted by β-scintillation spectrometry (TopCount, Packard-PerkinElmer Instruments, Wellesley, MA).
To test immune responses to particular epitopes within N-α-Syn, mice were immunized with N-4YSyn or PBS emulsified in complete Freund's adjuvant (CFA). Seven days following the initial immunization, mice were boosted with their respective immunogens emulsified in incomplete Freund's adjuvant (IFA). Seven days later, mice were sacrificed and splencoytes were tested for antigen-specific T cell proliferative responses to N-4YSyn or peptide epitope (nitrated or non-nitrated; Table 1).

Sequence | proliferative response (3H-thymidine incorporation)
GILEDMPVDPGSEAY (GILEDMPVDPGSEA[Tyr(3-NO2)]; listed as Mus musculus) [Peptide 23, murine α-synuclein positions 111-125, nitrated tyrosine] | significant proliferative response
GSEAYEMPSEEGYQD (GSEA[Tyr(3-NO2)]EMPSEEG[Tyr(3-NO2)]QD; listed as Mus musculus) [Peptide 25, murine α-synuclein positions 121-135, nitrated tyrosines] | significant proliferative response
GYPQEGILEDMPVDP (G[Tyr(3-NO2)]PQEGILEDMPVDP; listed as Mus musculus) [Peptide 22, murine α-synuclein positions 106-120, nitrated tyrosine] | significant proliferative response
MPVDPGSEAYEMPSE (MPVDPGSEA[Tyr(3-NO2)]EMPSE; listed as Mus musculus) [Peptide 24, murine α-synuclein positions 116-130, nitrated tyrosine] | significant proliferative response

Reference: US12156912B2, “Methods and compositions for inhibiting diseases of the central nervous system” (Board of Regents of the University of Nebraska, priority 2012, dated 2024)
